# “And” between values parts separate entries of the source, which are not always exact repeats. Equal entries are not always repeated. Ends that are not written are not given here. Peptide text beside a SMILES is read from it.
# Columns and labels:
# S. aureus ATCC 43300 = type: cell-based, Staphylococcus aureus; conditions: microtiter, serial 2-fold dilutions, 37°C, 16∼20 h, triplicate; – = no activity
# Outline: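 Broth microdilution format: peptides diluted 2-fold serially, same inoculum per well, incubated 16∼20 h at 37°C, with vancomycin as antibiotic control. Values are the lowest concentrations preventing visible growth, determined in triplicate.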
# [1] = test system: Staphylococcus aureus CVCC 546; experiment: microbe, parasite or virus in culture; type: cell-based
# Method: (§1) The minimal inhibitory concentration (MIC) was evaluated by a microtiter plate assay ([Wiegand et al., 2008]). Serial 2-fold dilutions of test peptides were placed into a 96-well plate containing identical bacterial inoculum and incubated at 37°C for 16∼20 h. Vancomycin was used as antibiotic control. The MIC value was defined as the lowest peptide concentration where no visible growth occurred. All tests were made in triplicate.
# [2] = test system: S. epidermidis ATCC 12228; experiment: MIC, microtiter plate assay; type: cell-based, Staphylococcus epidermidis; conditions: 16∼20 h, triplicate
# Method: as §1
# S. suis CVCC 3928 = experiment: MIC, microtiter plate assay; type: cell-based, Streptococcus suis; conditions: 16∼20 h, triplicate
# Method: as §1
# [3] = test system: Escherichia coli ATCC 25922; experiment: MIC, microtiter plate assay; type: cell-based; conditions: 16∼20 h, triplicate
# Method: as §1
# [4] = test system: Salmonella pullorum CVCC 533; experiment: MIC, microtiter plate assay; type: cell-based; conditions: 37°C, 16∼20 h, triplicate
# Method: as §1
# [5] = test system: Streptococcus pneumoniae CVCC 2350; experiment: MIC, microtiter plate assay; type: cell-based; conditions: 16∼20 h, triplicate
# Method: as §1
# E. coli K88 = experiment: MIC, microtiter plate assay; type: cell-based, Escherichia coli; conditions: 16∼20 h, triplicate
# Method: as §1
# S. enteritidis CVCC 3377 = experiment: MIC, microtiter plate assay; type: cell-based, Salmonella enteritidis; conditions: 37°C, 16∼20 h, triplicate
# Method: as §1
# mouse erythrocytes = experiment: Hemolytic activity; type: cell-based; conditions: 128 μg/mL, 8% (v/v) mouse erythrocytes in PBS, 1 h, 37°C, absorbance 576 nm, n = 3
# Method: Hemolytic activity of peptides was evaluated with fresh mouse erythrocytes. Briefly, fresh mouse erythrocytes were collected, washed, and resuspended to a concentration of 8% (v/v) in PBS. Then, an aliquot of erythrocyte solution was added to 96-well plates containing an equal volume of peptide solution (1∼256 μg/mL) and was incubated for 1 h at 37°C. The erythrocyte suspension treated with 0.1% Triton X-100 and left untreated was employed as positive and negative controls, respectively. After centrifugation at 2000 rpm for 5 min, the supernatant was measured using a microplate reader at 576 nm. The percent hemolysis was calculated using the following formula: Percenthemolysis = [(A − A0)/(A100 − A0)] × 100%, where A, A100, and A0 represent the absorbance of the peptide sample and positive and negative controls, respectively.
# [6] = test system: mouse macrophage RAW 264.7; experiment: Cytotoxicity, MTT assay; type: cell-based; conditions: 256 μg/mL, RAW 264.7, MTT, n = 4
# Method: The cytotoxicity of peptides toward mouse macrophage RAW 264.7 was evaluated by the MTT assay as described previously ([Wang X. et al., 2018]).
# S. aureus CVCC 546 [7] = experiment: Membrane permeabilization, PI flow cytometry; type: cell-based, Staphylococcus aureus; conditions: 2 × MIC, 0.5 h, 10^8 CFU/mL, n = 3
# Method: The effects of peptides on membrane permeabilization were measured by flow cytometry ([Zhu et al., 2018]). […] Cells untreated and treated with 2 × MIC DLP4 or vancomycin were used as blank and positive controls. The fluorescence of the dye was monitored at an excitation wavelength of 488 nm and an emission wavelength of 635 nm.
# S. aureus CVCC 546 [8] = experiment: Potassium ion (K+) leakage; type: cell-based, Staphylococcus aureus; conditions: 1 × MIC, treated for 150 min, 0.9% saline, 10^8 CFU/mL, ICP, n = 3
# Method: To further investigate the effects of peptides on membrane integrity, K^+ leakage determination was carried out as previously described ([Miao et al., 2016]). Briefly, S. aureus CVCC 546 cells were centrifuged, washed, and resuspended in 0.9% sterile saline. The cell suspension (10^8 CFU/mL) was treated with peptides at 1 × MIC. Cells untreated and treated with DLP4 or nisin were used as blank and positive controls. At time intervals of 30, 60, 90, 120, and 150 min, the suspensions were centrifuged at 12000 rpm for 5 min. The supernatants were then subjected to measurement by Agilent inductively coupled plasma optical emission (ICP-OES).
# S. aureus CVCC 546 gDNA = experiment: Gel retardation assay of gDNA binding; set-up: species or system Staphylococcus aureus; conditions: 10 min incubation, 1% agarose gel, ratios 0-5 (w/w)
# Method: A gel retardation assay ([Zhao et al., 2019]) was utilized to analyze the binding of peptides to genomic DNA (gDNA) extracted from S. aureus CVCC 546 with TIANamp Bacteria DNA Kit (TIANGEN Biotech Co., Ltd., Beijing). The peptides were incubated for 10 min with gDNA at different ratios of 0–5.0 (w/w) and then loaded on 1% agarose gel for electrophoresis analysis.
# S. aureus CVCC 546 [9] = experiment: Time-kill assay; type: cell-based, Staphylococcus aureus; conditions: 2 × MIC, MHB, 10^5 CFU/mL, 37°C, n = 3
# Text: Time-kill assay was used to assess the killing rates of S. aureus cells by AMPs in vitro, done by measuring the number of viable bacteria left at various times after exposure to the peptides. […] At different time intervals, a certain sample was taken, serially diluted, and plated on MHA for colonies counting. Cells treated with 2 × MIC DLP4 or vancomycin and left without treatment were used as the positive and blank controls, respectively ([Flamm et al., 2019]).
# S. aureus CVCC 546 [10] = experiment: Post-antibiotic effect (PAE); type: cell-based, Staphylococcus aureus; conditions: 2 × MIC, 2 h exposure, mean ± SD, n = 3
# Method: The PAE was determined by exposing S. aureus cells to antimicrobial agent at 1×, 2×, or 4 × MIC for 2 h. After drug removal by dilution, the bacterial culture was incubated at 37°C and 250 rpm. An aliquot of samples (50 μL) were taken for CFU counts at different time intervals until bacterial cultures became turbid. Bacteria treated with DLP4 or vancomycin and left without treatment were used as the positive and blank controls, respectively. The PAE was calculated using the following formula: PAE = T − C, where T is the time for the CFU counts to increase by 10-fold above the count observed immediately after drug removal, and C is the corresponding time for the untreated control ([Oh et al., 2019]).
# S. aureus CVCC 546 [11] = experiment: Mouse thigh infection model, CFU in thigh muscle; type: in vivo, mouse (female CD-1); conditions: 10 mg/kg single i.p. dose 2 h post-infection, read 24 h post-infection, n = 6
# Method: (§2) Mouse experiments were carried out at Gene Engineering Laboratory, Feed Research Institute of Chinese Academy of Agricultural Sciences (CAAS) and complied with institutional animal care and use policies and procedures (AEC-CAAS-20090609). All animal studies were performed with female CD-1 mice, 6∼7 weeks old.
# (§3) S. aureus CVCC 546 in the exponential phase were resuspended in MHB and adjusted to 1 × 10^8 CFU/mL, a 0.1-mL inoculum was injected into the right thighs of mice. At 2 h post-infection, mice (n = 6) were administered intraperitoneally (i.p.) with peptides at 2.5, 5, or 10 mg/kg. Mice raised without any treatment, or treated with PBS, 10 mg/kg DLP4, or vancomycin were used as the blank and negative and positive controls, respectively. At 24 h post-infection, peripheral blood was collected and serum was separated for cytokine levels analysis by using enzyme-linked immunosorbent assay (ELISA) kit (R&D systems, United States). Mice were euthanized, the right thighs were aseptically removed and processed for colonies counting ([Ling et al., 2015]).
# IL-10 = experiment: Mouse thigh infection model, serum cytokine ELISA; type: in vivo, mouse (female CD-1); conditions: 10 mg/kg i.p., serum 24 h post-infection
# Method: as §2, §3
# IL-6 = experiment: Mouse thigh infection model, serum cytokine ELISA; type: in vivo, mouse (female CD-1); conditions: 10 mg/kg i.p., serum 24 h post-infection
# Method: as §2, §3
# TNF-α = experiment: Mouse thigh infection model, serum cytokine ELISA; type: in vivo, mouse (female CD-1); conditions: 10 mg/kg i.p., serum 24 h post-infection
# Method: as §2, §3
# Gram-negative bacteria = experiment: MIC, summary over Gram-negative strains; type: cell-based; conditions: E. coli and Salmonella strains of Table 2
# Method: as §1
# [12] = Drop-diffusion assay of antibacterial activity; type: cell-based
compound,measurement,setting,value
"CC[C@H](C)[C@@H]1NC(=O)[C@@H]2CSSC[C@@H](C(=O)N[C@@H](CCCNC(=N)N)C(=O)N[C@@H](CCCCN)C(=O)O)NC(=O)[C@H](CC(N)=O)NC(=O)[C@@H]3CSSC[C@H](NC(=O)[C@H](C)NC(=O)[C@H](C)NC(=O)[C@H](Cc4c[nH]cn4)NC(=O)CNC(=O)[C@H](C(C)C)NC(=O)[C@H](CCCCN)NC(=O)[C@H](Cc4ccccc4)NC(=O)[C@@H]4CCCN4C(=O)[C@H](CO)NC(=O)[C@H](CC(C)C)NC(=O)[C@H](CC(C)C)NC(=O)[C@H](CC(=O)O)NC(=O)[C@@H](NC(=O)[C@@H](NC(=O)[C@H](C)N)[C@@H](C)O)CSSC[C@H](NC(=O)[C@H](Cc4c[nH]c5ccccc45)NC(=O)CNC(=O)CNC(=O)[C@H](CCCNC(=N)N)NC(=O)[C@H](CCCCN)NC(=O)CNC(=O)[C@H](CCCNC(=N)N)NC(=O)[C@H](C)NC1=O)C(=O)N[C@@H](CC(=O)O)C(=O)N[C@@H](CCCCN)C(=O)N[C@@H](CCCNC(=N)N)C(=O)N[C@@H](C)C(=O)N[C@@H](C(C)C)C(=O)N3)C(=O)N[C@@H](C)C(=O)N[C@@H](C)C(=O)N[C@@H](Cc1c[nH]cn1)C(=O)N2 [DLP4] (HELM PEPTIDE1{A.T.C.D.L.L.S.P.F.K.V.G.H.A.A.C.A.A.H.C.I.A.R.G.K.R.G.G.W.C.D.K.R.A.V.C.N.C.R.K}$PEPTIDE1,PEPTIDE1,3:R3-30:R3|PEPTIDE1,PEPTIDE1,16:R3-36:R3|PEPTIDE1,PEPTIDE1,20:R3-38:R3$$$V2.0; N-terminus and C-terminus assumed)",A1 (MIC against S. aureus ATCC 43300),S. aureus ATCC 43300,16 mg/L
same,MIC,"[1]; Table 1, – = no activity",16
same,MIC,"[1]; microtiter, 37°C, 16∼20 h, triplicate",3.75 µM
same,MIC,[2]; 37°C,14.99 µM
same,MIC,S. suis CVCC 3928; 37°C,3.75 µM
same,MIC,[3]; 37°C,>29.98 µM
same,MIC,[4],>29.98 µM
same,MIC,[5]; 37°C,7.50 µM
same,MIC,E. coli K88; 37°C,>29.98 µM
same,MIC,S. enteritidis CVCC 3377,>29.98 µM
same,hemolysis,mouse erythrocytes,0.61%
same,cell viability,[6],63.8%
same,percentage of PI-positive cells,S. aureus CVCC 546 [7],41.8%
same,level of released K+,S. aureus CVCC 546 [8],0.72 mg/L
same,peptide/gDNA mass ratio at which gDNA was completely blocked,S. aureus CVCC 546 gDNA,2.5
same,peptide/gDNA mass ratio at which migration of gDNA began to be retarded,S. aureus CVCC 546 gDNA,0.5
same,decrease of CFU counts within 1 h,S. aureus CVCC 546 [9],2.7 log10 CFU/mL
same,PAE,S. aureus CVCC 546 [10],8.20 ± 0.19 h
same,reduction of S. aureus in infected thigh muscles,S. aureus CVCC 546 [11],1.7 log10 (CFU/g)
same,downregulation of serum level of IL-10,IL-10,29.06 pg/mL
same,downregulation of serum level of IL-6,IL-6,710.02 pg/mL
same,downregulation of serum level of TNF-α,TNF-α,1103.30 pg/mL
same,activity against Gram-negative bacteria,Gram-negative bacteria,no activity
CN[C@H](CC(C)C)C(=O)N[C@H]1C(=O)N[C@@H](CC(N)=O)C(=O)N[C@H]2C(=O)N[C@H]3C(=O)N[C@H](C(=O)N[C@H](C(=O)O)c4cc(O)cc(O)c4-c4cc3ccc4O)[C@H](O)c3ccc(c(Cl)c3)Oc3cc2cc(c3O[C@@H]2O[C@H](CO)[C@@H](O)[C@H](O)[C@H]2O[C@H]2C[C@](C)(N)[C@H](O)[C@H](C)O2)Oc2ccc(cc2Cl)[C@H]1O [Vancomycin],MIC,"[1]; Staphylococcus aureus, CVCC546, 20 h",0.67 µM and 1 µg/mL
same,MIC,"[2]; Staphylococcus epidermidis, ATCC12228, 37°C",0.67 µM and 1 µg/mL
same,MIC,"S. suis CVCC 3928; Streptococcus suis, CVCC3928, 37°C",0.17 µM and 0.25 µg/mL
same,MIC,"[3]; Escherichia coli, ATCC25922, 37°C",86.2 µM and 128 µg/mL
same,MIC,"[4]; Salmonella enterica, PULLORUM",86.2 µM and 128 µg/mL
same,MIC,"[5]; Streptococcus pneumoniae, CVCC2350, 37°C",0.34 µM and 0.5 µg/mL
same,MIC,"E. coli K88; Escherichia coli, K88, 37°C",43.1 µM and 64 µg/mL
same,MIC,"S. enteritidis CVCC 3377; Salmonella enterica, ENTERITIDIS",86.2 µM and 128 µg/mL
same,hemolysis,mouse erythrocytes,0.54%
same,cell viability,[6],85.8%
same,percentage of PI-positive cells,S. aureus CVCC 546 [7],5.1%
same,decrease of CFU counts within 1 h,S. aureus CVCC 546 [9],0.22 log10 CFU/mL
same,PAE,S. aureus CVCC 546 [10],1.36 ± 0.20 h
same,reduction of S. aureus in infected thigh muscles,S. aureus CVCC 546 [11],0.77 log10 (CFU/g)
same,downregulation of serum level of IL-10,IL-10,15.82 pg/mL
same,downregulation of serum level of IL-6,IL-6,497.48 pg/mL
same,downregulation of serum level of TNF-α,TNF-α,1052.98 pg/mL
"ATCDLLSPFKVGHAACAAHCIARGKRSGWCDKRAVCNCRK (also: bicyclic or more (positions not given here)) [ID7, DLP4 derivative changed at a conservative site]",antibacterial activity,[12],no antibacterial activity

# Reference: PMC7291858, “An Enhanced Variant Designed From DLP4 Cationic Peptide Against Staphylococcus aureus CVCC 546” (Frontiers in Microbiology, 2020)
